# PubChem BioAssay (NCI)
# Several values for one entry are separate records, joined by “and”; a condition that tells them apart may be missing. Identical values can stand only once.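 Step 1: Grow cells in 96-well plates. Step 2: Expose to compound for 48 hours at 5 concentrations. Step 3: Interpolate endpoints linearly; if unreached, use highest concentration. At the GI50, growth is halved. TGI denotes the concentration required for complete inhibition of growth.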
# Columns and labels:
# Assay in all cases: NCI anticancer screen, dose series, 48 h
# [1] = system: DU-145 prostate
# [2] = system: T-47D breast
# [3] = system: HS 578T breast
# [4] = system: BT-549 breast
# [5] = system: PC-3 prostate
# [6] = system: MCF7 breast
# [7] = system: NCI/ADR-RES ovarian
# [8] = system: MDA-MB-435
smiles,measurement,setting,value
NC(C(=O)O)C(N)C(=O)O (centres undefined),TGI,[1],> 100 µM
same,TGI,[2],> 100 µM
same,TGI,[3],> 100 µM
same,TGI,[4],> 100 µM
same,TGI,[5],> 100 µM
same,TGI,[6],> 100 µM
same,TGI,[7],> 100 µM
Cc1ccnc2c1NC(=O)c1cccnc1N2C1CC1,GI50,[1],> 100 µM
same,TGI,[1],> 100 µM
same,GI50,[2],> 100 µM
same,TGI,[2],> 100 µM
same,GI50,[3],> 100 µM
same,TGI,[3],> 100 µM
same,GI50,[4],> 100 µM
same,TGI,[4],> 100 µM
same,GI50,[5],> 100 µM
same,TGI,[5],> 100 µM
same,GI50,[6],> 100 µM
same,TGI,[6],> 100 µM
same,GI50,[8],> 100 µM
same,TGI,[8],> 100 µM
same,GI50,[7],> 100 µM
same,TGI,[7],> 100 µM
COC(=O)/C(=C/N1CCN(C(=O)c2ccco2)C1=S)C(C)=O,GI50,[2],6.02 µM
same,TGI,[2],29.8 µM
same,GI50,[4],3.48 µM
same,TGI,[4],9.03 µM
same,GI50,[5],18.1 µM
same,TGI,[5],> 100 µM
same,GI50,[8],4.51 µM
same,TGI,[8],36.6 µM
same,GI50,[7],22.2 µM
same,TGI,[7],56.8 µM
COc1cc(/C=C2\C(=O)N(c3c(Cl)cccc3Cl)c3ccccc32)cc(OC)c1O,GI50,[1],0.663 µM
same,TGI,[1],6.13 µM
same,GI50,[2],2.89 µM
same,TGI,[2],17.8 µM
same,GI50,[3],8.98 µM
same,TGI,[3],> 27.8 µM
same,GI50,[4],3.2 µM
same,TGI,[4],18.4 µM
same,GI50,[5],1.44 µM
same,TGI,[5],27.1 µM
same,GI50,[6],0.524 µM
same,TGI,[6],9.26 µM
same,GI50,[8],0.626 µM
same,TGI,[8],15.4 µM
same,GI50,[7],0.793 µM
same,TGI,[7],13.5 µM
Nc1ccc(-c2ccc(-c3nc4ccccc4[nH]3)cc2)cc1,GI50,[1],10.6 µM
same,TGI,[1],> 100 µM
same,GI50,[2],3.89 µM
same,TGI,[2],> 100 µM
same,GI50,[3],31.1 µM
same,TGI,[3],> 100 µM
same,GI50,[4],13.2 µM
same,TGI,[4],> 61.6 µM
same,GI50,[5],14.1 µM
same,TGI,[5],56.8 µM
same,GI50,[6],0.765 µM
same,TGI,[6],> 100 µM
same,GI50,[8],< 0.0192 µM
same,TGI,[8],> 100 µM
same,GI50,[7],21.3 µM
same,TGI,[7],> 76.3 µM
O=C1C(Nc2ccccn2)=C(I)C(=O)c2ncccc21,GI50,[1],0.367 µM
same,TGI,[1],1.42 µM
same,GI50,[2],1.36 µM
same,TGI,[2],3.82 µM
same,GI50,[3],1.2 µM
same,TGI,[3],4.9 µM
same,GI50,[4],1.54 µM
same,TGI,[4],3.14 µM
same,GI50,[5],1.75 µM
same,TGI,[5],5.12 µM
same,GI50,[6],0.396 µM
same,TGI,[6],2.07 µM
same,GI50,[8],0.307 µM
same,TGI,[8],0.947 µM
same,GI50,[7],1.25 µM
same,TGI,[7],4.6 µM
CC(=O)N1c2ccccc2C23CCN4CC5=CCOC(O)C(C5CC42)C13 (centres undefined),TGI,[1],> 100 µM
same,TGI,[2],> 100 µM
same,TGI,[3],> 100 µM
same,TGI,[4],> 100 µM
same,TGI,[5],> 100 µM
same,TGI,[6],> 100 µM
same,TGI,[8],> 100 µM
same,TGI,[7],> 100 µM
CC/C(=C(\c1ccc(O)cc1)c1ccc(OCCNC)cc1)c1ccccc1,GI50,[1],2.15 µM and 1.71 µM and 2.33 µM
same,TGI,[1],4.36 µM and 3.46 µM and 5.25 µM
same,GI50,[2],1.3 µM and 1.21 µM and 1.25 µM
same,TGI,[2],3.83 µM and 3.43 µM and 4.01 µM
same,GI50,[3],0.356 µM and 1.34 µM and 1.78 µM
same,TGI,[3],3.42 µM and 3.32 µM and 5.18 µM
same,GI50,[4],2.39 µM and 1.84 µM and 3.33 µM
same,TGI,[4],5.61 µM and 3.77 µM and 8.64 µM
same,GI50,[5],1.84 µM and 1.77 µM and 2.25 µM
same,TGI,[5],5.92 µM and 4.85 µM and 5.53 µM
same,GI50,[6],0.788 µM and 0.427 µM
same,TGI,[6],2.84 µM and 2.83 µM and 2.81 µM
same,GI50,[8],1.51 µM and 1.57 µM and 1.58 µM
same,TGI,[8],3.04 µM and 3.07 µM and 3.02 µM
same,GI50,[7],2.6 µM and 2.55 µM and 2.5 µM
same,TGI,[7],6.83 µM and 7.06 µM and 6.81 µM
C[C@]12CC[C@H]3[C@@H](C[C@@H]4SC(Nc5cccc(F)c5)=N[C@@]45CC(=O)CC[C@]35C)[C@@H]1CCC2=O,GI50,[1],1.93 µM
same,TGI,[1],4.87 µM
same,GI50,[2],2.22 µM
same,TGI,[2],6.95 µM
same,GI50,[3],3.14 µM
same,TGI,[3],> 100 µM
same,GI50,[4],1.54 µM
same,TGI,[4],3.61 µM
same,GI50,[5],1.88 µM
same,TGI,[5],3.87 µM
same,GI50,[6],1.37 µM
same,TGI,[6],3.28 µM
same,GI50,[8],2.74 µM
same,TGI,[8],13.1 µM
same,GI50,[7],2.81 µM
same,TGI,[7],17.2 µM
O=C(N/N=C/c1cc2ccccc2c2ccccc12)c1cc(O)c(O)c(O)c1,GI50,[1],5.79 µM
same,TGI,[1],27 µM
same,GI50,[2],2.23 µM
same,TGI,[2],7.24 µM
same,GI50,[3],2.67 µM
same,TGI,[3],8.86 µM
same,GI50,[4],3.74 µM
same,TGI,[4],16.8 µM
same,GI50,[5],3.28 µM
same,TGI,[5],15.6 µM
same,GI50,[6],3.68 µM
same,TGI,[6],19.7 µM
same,GI50,[8],3.58 µM
same,TGI,[8],16.9 µM
same,GI50,[7],12.4 µM
same,TGI,[7],> 100 µM
O=S(=O)(Nc1ccc(Cl)c(C(F)(F)F)c1)c1ccc(-c2cnc(C3CC3)o2)cc1,GI50,[1],1.28 µM
same,TGI,[1],10.6 µM
same,GI50,[2],0.289 µM
same,TGI,[2],8.92 µM
same,GI50,[3],0.334 µM
same,TGI,[3],3.48 µM
same,GI50,[4],0.128 µM
same,TGI,[4],4.79 µM
same,GI50,[5],0.713 µM
same,TGI,[5],6.59 µM
same,GI50,[6],0.132 µM
same,TGI,[6],5.23 µM
same,GI50,[8],0.0658 µM
same,TGI,[8],0.606 µM
same,GI50,[7],0.163 µM
same,TGI,[7],2.43 µM
CCOC(=O)c1c(C)c2c(n1C)CSc1cc(S(=O)(=O)c3ccccc3)c(=O)[nH]c1-2,GI50,[1],23.1 µM
same,TGI,[1],> 100 µM
same,GI50,[2],10.5 µM
same,TGI,[2],74.7 µM
same,GI50,[3],40.1 µM
same,TGI,[3],> 100 µM
same,GI50,[4],21.1 µM
same,TGI,[4],> 100 µM
same,GI50,[5],14 µM
same,TGI,[5],> 100 µM
same,GI50,[6],19.3 µM
same,TGI,[6],> 100 µM
same,GI50,[8],30.8 µM
same,TGI,[8],> 100 µM
same,GI50,[7],22.6 µM
same,TGI,[7],> 100 µM
COCCOC(C)C(/C=N/NC(N)=S)=N/NC(N)=S (centres undefined),GI50,[1],> 100 µM
same,TGI,[1],> 100 µM
same,TGI,[2],> 100 µM
same,GI50,[3],> 100 µM
same,TGI,[3],> 100 µM
same,GI50,[4],> 100 µM
same,TGI,[4],> 100 µM
same,GI50,[5],0.0574 µM
same,TGI,[5],> 100 µM
same,GI50,[8],> 100 µM
same,TGI,[8],> 100 µM
same,GI50,[7],0.0732 µM
same,TGI,[7],> 100 µM
Cc1ccc(NC2=C(Cl)C(=O)c3nc(C)ccc3C2=O)cc1,GI50,[1],1.47 µM
same,TGI,[1],2.85 µM
same,GI50,[2],1.08 µM
same,TGI,[2],3.3 µM
same,GI50,[3],1.88 µM
same,TGI,[3],4.8 µM
same,GI50,[4],1.45 µM
same,TGI,[4],2.82 µM
same,GI50,[5],1.19 µM
same,TGI,[5],2.78 µM
same,GI50,[8],1.48 µM
same,TGI,[8],2.88 µM
same,GI50,[7],1.73 µM
same,TGI,[7],4.62 µM
Clc1ccc2c(NCCCN3CCN(c4nc(-n5ccnc5)nc5ccccc45)CC3)ccnc2c1,GI50,[1],> 100 µM
same,TGI,[1],> 100 µM
same,GI50,[2],> 100 µM
same,TGI,[2],> 100 µM
same,GI50,[3],2.28 µM
same,TGI,[3],19.2 µM
same,TGI,[5],> 100 µM
same,GI50,[8],1.74 µM
same,TGI,[8],3.2 µM
C/C=C(/C)C(=O)OC1C=C(CO)C(=O)C(OC(=O)/C(C)=C\C)C1C(C)C (centres undefined),GI50,[1],0.618 µM
same,TGI,[1],1.95 µM
same,GI50,[3],2.35 µM
same,TGI,[3],6.29 µM
same,GI50,[4],1.45 µM
same,TGI,[4],2.88 µM
same,GI50,[5],0.599 µM
same,TGI,[5],1.8 µM
same,GI50,[6],0.416 µM
same,TGI,[6],2.16 µM
same,GI50,[8],0.95 µM
same,TGI,[8],2.33 µM
same,GI50,[7],1.57 µM
same,TGI,[7],6.11 µM
